What is called IC50 is the point on the concentration scale where inhibition reaches its midpoint. A lower IC50 goes with greater potency.

Results on 25 compounds are retold here after ChEMBL document CHEMBL1150259, “Identification of Plasmodium falciparum spermidine synthase active site binders through structure-based virtual screening” (J Med Chem, 2008).

The structures appear in SMILES notation. Calls of active or inactive are those of the source. The rule behind the calls is not given here.

For experiment [1], the target named is T1, Spermidine synthase (Plasmodium falciparum) (UniProt Q9NFS5).
T1 sequence (whole entry): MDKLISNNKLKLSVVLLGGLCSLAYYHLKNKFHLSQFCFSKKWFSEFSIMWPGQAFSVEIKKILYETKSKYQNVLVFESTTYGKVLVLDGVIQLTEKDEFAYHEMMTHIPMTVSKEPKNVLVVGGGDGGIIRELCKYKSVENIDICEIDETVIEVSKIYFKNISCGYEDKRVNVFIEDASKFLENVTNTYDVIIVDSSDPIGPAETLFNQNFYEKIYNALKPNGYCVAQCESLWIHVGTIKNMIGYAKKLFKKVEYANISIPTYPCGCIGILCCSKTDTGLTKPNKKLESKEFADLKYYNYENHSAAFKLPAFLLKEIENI
The experiment can be described thus: Binding affinity to Plasmodium falciparum spermidine synthase by saturation transfer difference-NMR experiment.

The target of experiment [2] is T1, Spermidine synthase (Plasmodium falciparum). The experiment can be described thus: Binding affinity to Plasmodium falciparum spermidine synthase by saturation transfer difference-NMR experiment relative to methylthioadenosine.
A further experiment concerns Plasmodium falciparum. The experiment can be described thus: Growth inhibition of Plasmodium falciparum. It is filed as functional, organism-based.
The target in another experiment is T2, Spermidine synthase (Plasmodium falciparum, UniProt Q9NFS5).
T2 sequence (Q9NFS5 whole entry): T1 sequence (whole entry)
The experiment can be described thus: Inhibition of Plasmodium falciparum spermidine synthase.

In the case of `O=C(c1ccc2[nH]cnc2c1)N1CCN(C/C=C/c2ccccc2)CC1`, in experiment [1], the outcome was Active.

Turning to `O=C1NC(=S)NC(=O)C1=CNCCc1cnc[nH]1`, the outcome in experiment [1] was inactive. For `NC(=O)CSc1nc2ncnc(N)c2[nH]1`, the outcome in experiment [2] and in experiment [1] was Active. Regarding `Nc1nnc(SCC(=O)Nc2cccc(Oc3ccccc3)c2)[nH]1`, the result in experiment [2] was inactive. Besides, the result in experiment [1] was Active.

On to `O=C(CSc1nnc[nH]1)c1ccc2c(c1)OCCO2`, for which the result in experiment [1] was inactive. `CC1CCC(N)CC1` (centres undefined): the figures for the IC50 in the experiment on Plasmodium falciparum and at Spermidine synthase were 34 µM and 1.4 µM, respectively. As for `Nc1ncnc2c1ncn2[C@@H]1O[C@H](CO)[C@@H](O)[C@H]1O`, the result in experiment [2] and in experiment [1] was Active.

As for `O=C(CSc1nccc(=O)[nH]1)NCc1ccco1`, the result in experiment [1] was inactive. `Nc1nnc(SCC(=O)NCc2ccc3c(c2)OCO3)[nH]1`: the outcome in experiment [1] was inactive. At Spermidine synthase, `CSC[C@H]1O[C@@H](n2cnc3c(N)ncnc32)[C@H](O)[C@@H]1O` [METHYLTHIOADENOSINE] displayed an IC50 of 159 µM. Regarding `NCCCCCc1nnc(SCC(=O)Nc2cccc(Cl)c2)o1`, the outcome in experiment [1] was inactive. For the compound `O=C(C1CCCCN1)N1CCN(Cc2cccnc2)CC1` (centres undefined), in experiment [1], the result was inactive. Regarding `CCCCc1nnc(NC(=O)CSc2nnc[nH]2)s1`, the result in experiment [1] was inactive.

As to `O=C(CSc1cnn[nH]1)Nc1ncccn1`, in experiment [1], the result was inactive. Turning to `NCCCCCc1nc2ccccc2[nH]1`, the outcome in experiment [2] was Active. In the case of `NC(=O)c1ncn([C@@H]2O[C@H](CO)[C@@H](O)[C@H]2O)n1`, in experiment [1], the result was inactive. Take `NCCCCCCCNC(=O)Cc1ncc(C(F)(F)F)cc1Cl`: the result in experiment [1] was inactive. For the compound `Nc1nnc(SCC(=O)NCC2CN(Cc3ccccc3)CCO2)s1` (centres undefined), the outcome in experiment [1] was inactive.

As for `O=C(CSc1nnc[nH]1)Nc1nccs1`, the outcome in experiment [1] was inactive. `NCCSC1CC(=O)N(c2ccc(F)cc2)C1=O` (centres undefined): the result in experiment [1] was inactive. Regarding `O=C1C=C(NCCc2c[nH]cn2)CC1`, the result in experiment [1] was inactive. With `Nc1nc(N)nc(SCC(=O)NCc2ccc(F)cc2)n1`, the result in experiment [1] was inactive.

As to `N=c1c(N)c(O)ncn1CC(=O)c1ccc(I)cc1`, the outcome in experiment [1] was inactive. Take `Cn1c(SCC(=O)c2ccc3[nH]c(=O)oc3c2)nnc1-c1ccncc1`: in experiment [1], the outcome was inactive. On to `O=C(c1ccc2cn[nH]c2c1)N1CCN(c2ccccn2)CC1`, for which the outcome in experiment [1] was inactive.
